The results in this text go back to patent US20250059175A1, “Mutant Pi3k-Alpha Inhibitors And Their Use As Pharmaceuticals” (Prelude Therapeutics Incorporated, priority 2023, published 2025).

Experiment [1] relates to phosphorylation of AKT on Ser473 (PI3K pathway) in T-47D (heterozygous PIK3CA H1047R) cell line. In words: PI3K pathway activation assay (pAKT Ser473 HTRF), T-47D cells. It is filed as cell-based. To be noted: T-47D (heterozygous PIK3CA H1047R) cells, two hours of treatment, pAKT Ser473 HTRF; for IC50: read-out: T47D pAKT IC50. On the procedure: (§1) The inhibitory activity of the compounds of the disclosure was evaluated by measuring phosphorylation of AKT on Ser473 as a readout of the PI3K pathway using HTRF (CisBio catalog number: 64AKSPE). These studies were conducted in the T-47D (heterozygous PIK3CA H1047R) and SKBR3 (PIK3CA WT) cell lines. Cells were maintained in a 37° C. incubator at 5% CO2 in the following media: T-47D: RPMI 1640, ATCC© Modification (Gibco, A10491-01) supplemented with 10% v/v FBS (Gibco, 26140-079), 1% penicillin streptomycin (Gibco, 15140-122), and 7.4 ug/mL insulin (MilliporeSigma, I9278); SKBR3: McCoy's 5a (Modified) Medium (Gibco, 16600-082) supplemented with 10% v/v FBS (Gibco, 26140-079). Cells were seeded in 384-well plates at a density of 4,000 cells/well. Compounds dissolved in DMSO were added using a digital dispense (D300E, Tecan) 10-point serial dilution. After two hours of treatment, cells were lysed for thirty minutes and then incubated with detection reagents per HTRF kit material and manufacturer's instructions. Fluorescence signal was measured with a multimode plate reader (Envision 2105, Perkin Elmer). Fluorescent signal was normalized to background and DMSO controls to obtain percent inhibition/activity for each compound.
A general note: In TR-FRET formats the signal depends on donor and acceptor labels being close together.

The test system of experiment [2] is phosphorylation of AKT on Ser473 (PI3K pathway) in SKBR3 (PIK3CA WT) cell line. The experiment can be described thus: PI3K pathway activation assay (pAKT Ser473 HTRF), SKBR3 cells. It is filed as cell-based. Particulars: Homo sapiens, SK-BR-3, 2 h, two hours of treatment. The method, then:
as §1

Like-named read-outs stand apart in the source and are kept apart here. A value given as a limit tells only on which side of the number the result lay.

With `Cc1cc(C(C)Nc2ccc(F)nc2C(=O)O)nc(N2C(=O)OC[C@@H]2Cc2ccccc2)c1` (single isomer, unassigned) [Example 11], the IC50 (usually the concentration needed to halve the response being measured) in experiment [1] (Homo sapiens, T47D, 2 h) was below 100 nM; in experiment [2], above 10000 nM.

`Cc1cc(C(C)Nc2ccc(Cl)nc2C(=O)O)nc(N2C(=O)OC[C@@H]2Cc2ccccc2)c1` (single isomer, unassigned) [Example 12]: the “T47D pAKT IC50” value in experiment [1] is given as “++ ++”. Also, the IC50 in experiment [2] fell in the range of 1000 to 10000 nM.

Regarding `Cc1cc(C(C)Nc2ccc(Br)nc2C(=O)O)nc(N2C(=O)OC[C@@H]2Cc2ccccc2)c1` (single isomer, unassigned) [Example 18], the IC50 was below 100 nM in experiment [1] (Homo sapiens, T47D, 2 h) and above 10000 nM in experiment [2].

As to `Cc1cc([C@@H](C)Nc2ccc(Cl)nc2C(=O)O)nc(N2C(=O)OC[C@@H]2Cc2cn(C)nc2C)c1` [Example 35, 6-Chloro-3-(((R)-1-(6-((S)-4-((1,3-dimethyl-1H-pyrazol-4-yl)methyl)-2-oxooxazolidin-3-yl)-4-methylpyridin-2-yl)ethyl)amino)picolinic acid], in experiment [1] (Homo sapiens, T47D, 2 h), the IC50 is 100 to 1000 nM.

`Cc1cc([C@@H](C)Nc2ccc(Cl)nc2C(=O)O)nc(N2C(=O)OC[C@@H]2Cc2cn(C)nc2F)c1` [Example 36, 6-Chloro-3-(((R)-1-(6-((S)-4-((3-fluoro-1-methyl-1H-pyrazol-4-yl)methyl)-2-oxooxazolidin-3-yl)-4-methylpyridin-2-yl)ethyl)amino)picolinic acid]: in experiment [1] (Homo sapiens, T47D, 2 h), the IC50 lay within 100 to 1000 nM.

As for `Cc1cc([C@@H](C)Nc2ccc(Cl)nc2C(=O)O)nc(N2C(=O)OC[C@@H]2Cc2cn(C)c3ccccc23)c1` [Example 37, 6-Chloro-3-(((R)-1-(4-methyl-6-((S)-4-((1-methyl-1H-indol-3-yl)methyl)-2-oxooxazolidin-3-yl)pyridin-2-yl)ethyl)amino)picolinic acid], in experiment [1] (Homo sapiens, T47D, 2 h), the IC50 was below 100 nM.

In the case of `Cc1cc([C@@H](C)Nc2ccc(Cl)nc2C(=O)O)nc(N2C(=O)OC[C@@H]2Cc2nn(C)c3ccccc23)c1` [Example 38, 6-Chloro-3-(((R)-1-(4-methyl-6-((S)-4-((1-methyl-1H-indazol-3-yl)methyl)-2-oxooxazolidin-3-yl)pyridin-2-yl)ethyl)amino)picolinic acid], the IC50 in experiment [1] (Homo sapiens, T47D, 2 h) fell in the range of 100 to 1000 nM.

`Cc1cc([C@@H](C)Nc2ccc(Cl)nc2C(=O)O)nc(N2C(=O)OC[C@@H]2Cc2cn(C)c3ncccc23)c1` [Example 39, 6-Chloro-3-(((R)-1-(4-methyl-6-((S)-4-((1-methyl-1H-pyrrolo[2,3-b]pyridin-3-yl)methyl)-2-oxooxazolidin-3-yl)pyridin-2-yl)ethyl)amino)picolinic acid]: in experiment [1] (Homo sapiens, T47D, 2 h), the IC50 is below 100 nM.

Consider `Cc1cc([C@@H](C)Nc2ccc(Cl)nc2C(=O)O)nc(N2C(=O)OC[C@@H]2Cc2ccn3nccc3c2)c1` [Example 40, 6-Chloro-3-(((R)-1-(4-methyl-6-((S)-2-oxo-4-(pyrazolo[1,5-α]pyridin-5-ylmethyl)oxazolidin-3-yl)pyridin-2-yl)ethyl)amino)picolinic acid], for which the IC50 in experiment [1] was below 100 nM.

Regarding `Cc1cc([C@@H](C)Nc2ccc(Cl)nc2C(=O)O)nc(N2C(=O)OC[C@@H]2Cc2ccc3cncn3c2)c1` [Example 41, 6-Chloro-3-(((R)-1-(6-((S)-4-(imidazo[1,5-α]pyridin-6-ylmethyl)-2-oxooxazolidin-3-yl)-4-methylpyridin-2-yl)ethyl)amino)picolinic acid], in experiment [1], the IC50 lay within 100 to 1000 nM.

Take `Cc1cc([C@@H](C)Nc2ccc(Cl)nc2C(=O)O)nc(N2C(=O)OC[C@@H]2Cc2ccc3c(cnn3C)c2)c1` [Example 42, 6-Chloro-3-(((R)-1-(4-methyl-6-((S)-4-((1-methyl-1H-indazol-5-yl)methyl)-2-oxooxazolidin-3-yl)pyridin-2-yl)ethyl)amino)picolinic acid]: the IC50 in experiment [1] (Homo sapiens, T47D, 2 h) was below 100 nM.

For the compound `Cc1cc([C@@H](C)Nc2ccc(Cl)nc2C(=O)O)nc(N2C(=O)OC[C@@H]2Cc2ccc3nn(C)cc3c2)c1` [Example 43, 6-Chloro-3-(((R)-1-(4-methyl-6-((S)-4-((2-methyl-2H-indazol-5-yl)methyl)-2-oxooxazolidin-3-yl)pyridin-2-yl)ethyl)amino)picolinic acid], the IC50 in experiment [1] (Homo sapiens, T47D, 2 h) is below 100 nM.

With `Cc1cc([C@@H](C)Nc2ccc(Cl)nc2C(=O)O)nc(N2C(=O)OC[C@@H]2Cc2cccn3ccnc23)c1` [Example 44, 6-Chloro-3-(((R)-1-(6-((S)-4-(imidazo[1,2-α]pyridin-8-ylmethyl)-2-oxooxazolidin-3-yl)-4-methylpyridin-2-yl)ethyl)amino)picolinic acid], in experiment [1], the IC50 fell in the range of 100 to 1000 nM.

Take `Cc1cc([C@@H](C)Nc2ccc(Cl)nc2C(=O)O)nc(N2C(=O)OC[C@@H]2Cc2cccn3nccc23)c1` [Example 45, 6-Chloro-3-(((R)-1-(4-methyl-6-((S)-2-oxo-4-(pyrazolo[1,5-α]pyridin-4-ylmethyl)oxazolidin-3-yl)pyridin-2-yl)ethyl)amino)picolinic acid]: in experiment [1], the IC50 was below 100 nM.

In the case of `Cc1cc([C@@H](C)Nc2ccc(Cl)nc2C(=O)O)nc(N2C(=O)OC[C@@H]2Cc2cnn3ccccc23)c1` [Example 46, 6-Chloro-3-(((R)-1-(4-methyl-6-((S)-2-oxo-4-(pyrazolo[1,5-α]pyridin-3-ylmethyl)oxazolidin-3-yl)pyridin-2-yl)ethyl)amino)picolinic acid], in experiment [1], the IC50 is below 100 nM.

Consider `Cc1cc([C@@H](C)Nc2ccc(Cl)nc2C(=O)O)nc(N2C(=O)OC[C@@H]2CC2CCC2)c1` [Example 47, 6-Chloro-3-(((R)-1-(6-((S)-4-(cyclobutylmethyl)-2-oxooxazolidin-3-yl)-4-methylpyridin-2-yl)ethyl)amino)picolinic acid], for which the IC50 in experiment [1] (Homo sapiens, T47D, 2 h) was below 100 nM.

As for `Cc1cc([C@@H](C)Nc2ccc(Cl)nc2C(=O)O)nc(N2C(=O)OC[C@@H]2Cc2c[nH]c3ccccc23)c1` [Example 50, 3-(((R)-1-(6-((S)-4-((1H-Indol-3-yl)methyl)-2-oxooxazolidin-3-yl)-4-methylpyridin-2-yl)ethyl)amino)-6-chloropicolinic acid], the IC50 in experiment [1] (Homo sapiens, T47D, 2 h) lay within 100 to 1000 nM.

In the case of `Cc1cc([C@@H](C)Nc2ccc(Cl)nc2C(=O)O)nc(N2C(=O)OC[C@@H]2Cc2ccc(C(=O)N(C)C)cc2)c1` [Example 51, 6-Chloro-3-(((R)-1-(6-((S)-4-(4-(dimethylcarbamoyl)benzyl)-2-oxooxazolidin-3-yl)-4-methylpyridin-2-yl)ethyl)amino)picolinic acid], the IC50 in experiment [1] (Homo sapiens, T47D, 2 h) lay within 100 to 1000 nM.

Turning to `CON(C)C(=O)c1ccc(C[C@H]2COC(=O)N2c2cc(C)cc([C@@H](C)Nc3ccc(Cl)nc3C(=O)O)n2)cc1` [Example 52, 6-Chloro-3-(((R)-1-(6-((S)-4-(4-(methoxy(methyl)carbamoyl)benzyl)-2-oxooxazolidin-3-yl)-4-methylpyridin-2-yl)ethyl)amino)picolinic acid], the IC50 in experiment [1] (Homo sapiens, T47D, 2 h) fell in the range of 100 to 1000 nM.

For the compound `Cc1cc([C@@H](C)Nc2ccc(Cl)nc2C(=O)O)nc(N2C(=O)OC[C@@H]2CCc2ccccc2)c1` [Example 53, 6-Chloro-3-(((R)-1-(4-methyl-6-((S)-2-oxo-4-phenethyloxazolidin-3-yl)pyridin-2-yl)ethyl)amino)picolinic acid], in experiment [1] (Homo sapiens, T47D, 2 h), the IC50 was in the range of 100 to 1000 nM.

Take `Cc1cc([C@@H](C)Nc2ccc(Cl)nc2C(=O)O)nc(N2C(=O)OC[C@]2(C)Cc2ccccc2)c1` [Example 54, 3-(((R)-1-(6-((S)-4-Benzyl-4-methyl-2-oxooxazolidin-3-yl)-4-methylpyridin-2-yl)ethyl)amino)-6-chloropicolinic acid]: in experiment [1] (Homo sapiens, T47D, 2 h), the IC50 was in the range of 100 to 1000 nM.

Turning to `Cc1cc([C@@H](C)Nc2ccc(Cl)nc2C(=O)O)nc(N2C(=O)CCC2Cc2ccccc2)c1` (stereo partly drawn) [Example 55, 3-(((1R)-1-(6-(2-benzyl-5-oxopyrrolidin-1-yl)-4-methylpyridin-2-yl)ethyl)amino)-6-chloropicolinic acid], in experiment [1] (Homo sapiens, T47D, 2 h), the IC50 is 1000 to 10000 nM.

Turning to `Cc1cc([C@@H](C)Nc2ccc(Cl)nc2C(=O)O)nc(N2C(=O)OCC[C@@H]2Cc2ccccc2)c1` [Example 56, 3-(((R)-1-(6-((S)-4-Benzyl-2-oxo-1,3-oxazinan-3-yl)-4-methylpyridin-2-yl)ethyl)amino)-6-chloropicolinic acid], the IC50 in experiment [1] (Homo sapiens, T47D, 2 h) lay in the range of 100 to 1000 nM.

For `Cc1cc([C@@H](C)Nc2ccc(Cl)nc2C(=O)O)nc(N2C(=O)COC[C@@H]2Cc2ccccc2)c1` [Example 57, 3-(((R)-1-(6-((S)-3-Benzyl-5-oxomorpholino)-4-methylpyridin-2-yl)ethyl)amino)-6-chloropicolinic acid], in experiment [1] (Homo sapiens, T47D, 2 h), the IC50 lay in the range of 100 to 1000 nM.

Take `Cc1cccc(C[C@H]2COC(=O)N2c2cc(F)cc([C@@H](C)Nc3ccc(Cl)nc3C(=O)O)c2)c1` [Example 62, 6-Chloro-3-(((R)-1-(3-fluoro-5-((S)-4-(3-methylbenzyl)-2-oxooxazolidin-3-yl)phenyl)ethyl)amino)picolinic acid]: the IC50 in experiment [1] (Homo sapiens, T47D, 2 h) was 100 to 1000 nM.
